Results: patent publication US11124537B2, “Inhibitors of glucocorticoid receptor” (ORIC Pharmaceuticals, Inc., priority 2015, dated 2021)

Biological target: GR (Homo sapiens (Human), UniProt P04150)
Test: In Vitro GR Luciferase Reporter Assay
Format: cell-based
Conditions: CHO-K1-GR-MMTV-Luc reporter cells, antagonist assay, 10 nM Dexamethasone, 18-24 hours
Description: Example 4: In Vitro GR Luciferase Reporter Assay
Cell Line: CHO-K1-GR-MMTV-Luc reporter cells
Culture Media: DMEM (with phenol red)+10% FBS
Assay Media: DMEM (without phenol red)+10% CSS
Culture CHO-K1-GR-MMTV-Luc reporter cells in 15 cm plates in Culture Media at conditions less than 90% confluence.
Prepare 200×DMSO 1:5 serial dilutions of control and test compounds in 96-well non-sterile V bottom plate in DMSO, 8 serial dilutions for each compound.
Prepare 5× Assay Media diluted compound serial dilutions in 96-well non-sterile V bottom plate: Add 97.5 uL/well of Assay Media into 96-well then add 2.5 ul of 200× concentration of compounds and mix well.
Seed cells for Antagonist Assay: […] CHO-K1-GR-MMTV-Luc reporter cells were seeded in a Corning 3707 flat clear bottom 384-well white TC plate in 20 ul of Assay Media containing 12.5 nM Dexamethasone (final concentration=10 nM).
Add compounds: 5 ul of assay media diluted compounds were added to appropriate wells and followed a quick spin (1000 rpm, 10 sec) to bring media and cells to the bottom of plate. The plates were covered with SealMate film to avoid evaporation and placed in 37° C. incubator for approximately 18-24 hours.
Read plates: Equilibrate appropriate amount of Promega OneGlo luciferase reagent to room temperature. Remove the plates from incubator and add 25 uL of OneGlo reagent/well by multiple channel pipette and read the plates with Tecan F500 luminometer within 3 minutes.
The ability of the compounds disclosed herein to inhibit GR activity was quantified and the respective IC50 value was determined. Table 3 provides the cellular IC50 values of various substituted steroidal compounds disclosed herein.

Chain of GR (P04150 whole entry): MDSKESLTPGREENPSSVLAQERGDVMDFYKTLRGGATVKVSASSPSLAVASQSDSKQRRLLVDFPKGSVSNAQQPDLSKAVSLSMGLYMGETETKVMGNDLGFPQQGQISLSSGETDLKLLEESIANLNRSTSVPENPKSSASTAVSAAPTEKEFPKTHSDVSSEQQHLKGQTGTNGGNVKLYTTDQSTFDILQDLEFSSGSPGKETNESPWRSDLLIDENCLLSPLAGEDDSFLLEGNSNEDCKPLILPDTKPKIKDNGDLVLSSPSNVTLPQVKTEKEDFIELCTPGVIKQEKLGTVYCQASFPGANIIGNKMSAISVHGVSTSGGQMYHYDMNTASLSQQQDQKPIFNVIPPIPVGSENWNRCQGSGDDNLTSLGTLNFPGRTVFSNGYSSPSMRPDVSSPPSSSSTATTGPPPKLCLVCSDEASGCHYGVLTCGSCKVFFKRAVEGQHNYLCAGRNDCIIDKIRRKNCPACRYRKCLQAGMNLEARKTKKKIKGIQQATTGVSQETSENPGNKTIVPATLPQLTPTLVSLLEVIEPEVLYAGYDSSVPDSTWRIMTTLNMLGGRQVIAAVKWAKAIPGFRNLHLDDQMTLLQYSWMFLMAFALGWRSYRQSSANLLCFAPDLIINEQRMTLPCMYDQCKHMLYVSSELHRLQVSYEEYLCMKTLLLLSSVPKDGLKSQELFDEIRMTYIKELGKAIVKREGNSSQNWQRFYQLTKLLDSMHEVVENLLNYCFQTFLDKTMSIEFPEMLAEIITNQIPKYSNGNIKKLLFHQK

Structure (SMILES)	IC50
CN(C)c1ccc([C@H]2C[C@@]3(C)[C@@H](CC[C@@]3(O)C#Cc3ccccc3)[C@@H]3CCC4=CC(=O)CCC4=C32)cc1 [drawing 266]	≤ 100 nM
CN(C)c1ccc([C@H]2C[C@@]3(C)[C@@H](CC[C@@]3(O)C#CC3CC3)[C@@H]3CCC4=CC(=O)CCC4=C32)c(F)c1F [drawing 303]	≤ 100 nM
CCN(c1ccc([C@H]2C[C@@]3(C)[C@@H](CC[C@@]3(O)C#CC(C)(C)C)[C@@H]3CCC4=CC(=O)CCC4=C32)cc1)C(C)C	> 100 nM
CC(C)(C)C#C[C@]1(O)CC[C@H]2[C@@H]3CCC4=CC(=O)CCC4=C3[C@@H](c3ccc(N4CCN(C(=O)CO)CC4)cc3)C[C@@]21C	≤ 100 nM
CN(C)c1ccc([C@H]2C[C@@]3(C)[C@@H](CC[C@@]3(O)C#CC3(C)COC3)[C@@H]3CCC4=CC(=O)CCC4=C32)cc1 [drawing 354]	≤ 100 nM
CC(C)(C)C#C[C@]1(O)CC[C@H]2[C@@H]3CCC4=CC(=O)CCC4=C3[C@@H](c3cc(F)c(-c4cncnc4)cc3F)C[C@@]21C	≤ 100 nM
COC(C)(C)C#C[C@]1(O)CC[C@H]2[C@@H]3CCC4=CC(=O)CCC4=C3[C@@H](c3ccc(N4CCS(=O)(=O)CC4)cc3)C[C@@]21C	> 100 nM
[2H]C([2H])([2H])N(c1ccc([C@H]2C[C@@]3(C)[C@@H](CC[C@@]3(O)C#CC(C)(C)C)[C@@H]3CCC4=CC(=O)CCC4=C32)cc1)C([2H])([2H])[2H]	≤ 100 nM
CC(C)C#C[C@]1(O)CC[C@H]2[C@@H]3CCC4=CC(=O)CCC4=C3[C@@H](c3cc(F)c(N(C)C)cc3F)C[C@@]21C	≤ 100 nM
CC(C)C#C[C@]1(O)CC[C@H]2[C@@H]3CCC4=CC(=O)CCC4=C3[C@@H](c3ccc(N(C)C)c(F)c3F)C[C@@]21C	≤ 100 nM
CN(C)c1ccc([C@H]2C[C@@]3(C)[C@@H](CC[C@@]3(O)C#Cc3ccccn3)[C@@H]3CCC4=CC(=O)CCC4=C32)cc1	≤ 100 nM
CC(=O)N1CCN(c2ccc([C@H]3C[C@@]4(C)[C@@H](CC[C@@]4(O)C#CC(C)(C)C)[C@@H]4CCC5=CC(=O)CCC5=C43)cc2)CC1	≤ 100 nM
CC(C)C#C[C@]1(O)CC[C@H]2[C@@H]3CCC4=CC(=O)CCC4=C3[C@@H](c3c(F)cc(N4CCOCC4)cc3F)C[C@@]21C [drawing 294]	≤ 100 nM
CCc1ccc([C@H]2C[C@@]3(C)[C@@H](CC[C@@]3(O)C#Cc3ccccc3)[C@@H]3CCC4=CC(=O)CCC4=C32)cc1	≤ 100 nM
CCN(C)c1cc(F)c([C@H]2C[C@@]3(C)[C@@H](CC[C@@]3(O)C#CC(C)C)[C@@H]3CCC4=CC(=O)CCC4=C32)c(F)c1	≤ 100 nM
CC(C)N(C)c1ccc([C@H]2C[C@@]3(C)[C@@H](CC[C@@]3(O)C#Cc3ccc(S(C)(=O)=O)cc3)[C@@H]3CCC4=CC(=O)CCC4=C32)cc1	≤ 100 nM
CN(C)c1ccc([C@H]2C[C@@]3(C)[C@@H](CC[C@@]3(O)C#Cc3ccc(S(C)(=O)=O)cc3)[C@@H]3CCC4=CC(=O)CCC4=C32)cc1 [drawing 352]	≤ 100 nM

The next lines start with the values.

IC50	Structure (SMILES)
≤ 100 nM	CN(CC(F)(F)F)c1ccc([C@H]2C[C@@]3(C)[C@@H](CC[C@@]3(O)C#CC(C)(C)C)[C@@H]3CCC4=CC(=O)CCC4=C32)cc1
≤ 100 nM	CN(C)c1ccc([C@H]2C[C@@]3(C)[C@@H](CC[C@@]3(O)C#CC(C)(C)C)[C@@H]3CCC4=CC(=O)CCC4=C32)c(F)c1F
≤ 100 nM	COC(C)(C)C#C[C@]1(O)CC[C@H]2[C@@H]3CCC4=CC(=O)CCC4=C3[C@@H](c3ccc(C(C)(C)C)cc3)C[C@@]21C
≤ 100 nM	CC(C)(C)C#C[C@]1(O)CC[C@H]2[C@@H]3CCC4=CC(=O)CCC4=C3[C@@H](c3ccc(C4(C)COC4)cc3)C[C@@]21C
≤ 100 nM	CN(C)c1c(F)cc([C@H]2C[C@@]3(C)[C@@H](CC[C@@]3(O)C#CC(C)(C)C)[C@@H]3CCC4=CC(=O)CCC4=C32)cc1F
≤ 100 nM	C[C@]12C[C@H](c3ccc4c(c3)OCCO4)C3=C4CCC(=O)C=C4CC[C@H]3[C@@H]1CC[C@@]2(O)C#CC1CC1
≤ 100 nM	CC(C)(C)C#C[C@]1(O)CC[C@H]2[C@@H]3CCC4=CC(=O)CCC4=C3[C@@H](c3ccc(C(C)(C)C)cc3)C[C@@]21C [drawing 268]
> 100 nM	CN(C)c1c(F)cc([C@H]2C[C@@]3(C)[C@@H](CC[C@@]3(O)C#CC(F)(F)F)[C@@H]3CCC4=CC(=O)CCC4=C32)cc1F
≤ 100 nM	CC(C)C#C[C@]1(O)CC[C@H]2[C@@H]3CCC4=CC(=O)CCC4=C3[C@@H](c3cc(F)c(C(C)C)c(F)c3)C[C@@]21C [drawing 299]
> 100 nM	CN(C)c1cc([C@H]2C[C@@]3(C)[C@@H](CC[C@@]3(O)C#CC(F)(F)F)[C@@H]3CCC4=CC(=O)CCC4=C32)ccc1Cl
> 100 nM	CC(C)(C)C#C[C@]1(O)CC[C@H]2[C@@H]3CCC4=CC(=O)CCC4=C3[C@@H](c3ccc(N)cc3)C[C@@]21C
≤ 100 nM	Cc1c(F)cc([C@H]2C[C@@]3(C)[C@@H](CC[C@@]3(O)C#CC(C)C)[C@@H]3CCC4=CC(=O)CCC4=C32)cc1F
≤ 100 nM	CC(C)(C)C#C[C@]1(O)CC[C@H]2[C@@H]3CCC4=CC(=O)CCC4=C3[C@@H](c3ccc4c(c3)OCCO4)C[C@@]21C
≤ 100 nM	Cc1ccc([C@H]2C[C@@]3(C)[C@@H](CC[C@@]3(O)C#CC(C)(C)C)[C@@H]3CCC4=CC(=O)CCC4=C32)cc1
> 100 nM	CN(C)c1ccc([C@H]2C[C@@]3(C)[C@@H](CC[C@@]3(O)C#CCO)[C@@H]3CCC4=CC(=O)CCC4=C32)cc1
≤ 100 nM	Cc1cc([C@H]2C[C@@]3(C)[C@@H](CC[C@@]3(O)C#CC(C)(C)C)[C@@H]3CCC4=CC(=O)CCC4=C32)ccc1N(C)C [drawing 283]
> 100 nM	Cc1ccc([C@H]2C[C@@]3(C)[C@@H](CC[C@@]3(O)C#CC(F)(F)F)[C@@H]3CCC4=CC(=O)CCC4=C32)cc1F
≤ 100 nM	CN(C)c1cc(F)c([C@H]2C[C@@]3(C)[C@@H](CC[C@@]3(O)C#CC(C)(C)C)[C@@H]3CCC4=CC(=O)CCC4=C32)cc1F [drawing 304]
≤ 100 nM	COc1ccc([C@H]2C[C@@]3(C)[C@@H](CC[C@@]3(O)C#CC(C)(C)C)[C@@H]3CCC4=CC(=O)CCC4=C32)cc1
≤ 100 nM	C[C@]12C[C@H](c3ccc4c(c3)OCO4)C3=C4CCC(=O)C=C4CC[C@H]3[C@@H]1CC[C@@]2(O)C#CC(F)(F)F
≤ 100 nM	Cc1ccc([C@H]2C[C@@]3(C)[C@@H](CC[C@@]3(O)C#CC(C)(C)C)[C@@H]3CCC4=CC(=O)CCC4=C32)cc1C
≤ 100 nM	C[C@]12C[C@H](c3ccc4c(c3)OCCO4)C3=C4CCC(=O)C=C4CC[C@H]3[C@@H]1CC[C@@]2(O)C#CC(F)(F)F
≤ 100 nM	CC(C)(C)C#C[C@]1(O)CC[C@H]2[C@@H]3CCC4=CC(=O)CCC4=C3[C@@H](c3ccc(NCC4CC4)cc3)C[C@@]21C
≤ 100 nM	CN(C)c1c(F)cc([C@H]2C[C@@]3(C)[C@@H](CC[C@@]3(O)C#CC3CC3)[C@@H]3CCC4=CC(=O)CCC4=C32)cc1F
≤ 100 nM	Cc1c(F)cc([C@H]2C[C@@]3(C)[C@@H](CC[C@@]3(O)C#Cc3ccc(S(C)(=O)=O)cc3)[C@@H]3CCC4=CC(=O)CCC4=C32)cc1F [drawing 293]
